Measured values published in article PMC10683482, “Offsetting Low-Affinity Carbohydrate Binding with Covalency to Engage Sugar-Specific Proteins for Tumor-Immune Proximity Induction” (ACS Central Science, 2023).

Columns and labels:
[1] = system: PSMA-expressing target cells (Hek-PSMA, LNCaP, C4-2); assay: ADCP assay with anti-23F and U937 monocytes; type: cell-based, human; conditions: 8 μM compound with 4 μM anti-23F 24 h; 1 h, 37 °C; flow cytometry
Method: (§1) Figure 5 Functional analysis of PSMA-targeting SuFEx cARMs. A. Chemical structure of the functional GU cARM molecule used for PSMA targeting. B. Confocal (top) and fluorescent imaging (bottom) of Hek-PSMA cells treated with anti-23F only or anti-23F antibody pre-incubated with rhamnose-SO2F-cARM 14. C. Jurkat activation assay evaluation of 14 directly in polyclonal human IgG. Each cARM/ARM (9 μM) was incubated with polyclonal human IgG (230 μM) overnight and then added to pre-plated Hek-P cells (50,000 cells). To this cell solution, luciferase expressing jurkat cells were added and incubated for 24 hours. Activation of jurkat cells was determined by measuring luciferase expression with a BioGlo assay kit. D. ADCP assays using various PSMA-expressing model and bonafide cancer cell lines. Each cARM/ARM (8 μM) was incubated with anti-23F (4 μM) overnight followed by addition to target cells (150,000 cells). Next, IFN-γ activated monocytes (150,000 cells) were added and incubated for 1 hour at 37 °C. ADCP was determined via flow cytometry.
Finally, the capacity of Rha-cARMs to induce ADCP of multiple target cell lines (varying in PSMA expression) was evaluated. ADCP represents a major mode of antitumor monocyte/macrophage immunotherapeutic function, also invoked by several FDA-approved monoclonal antibody therapies. […]

Hek-PSMA cells = assay: ADCC reporter (jurkat activation) assay directly in polyclonal human IgG (Figure 5C); type: cell-based; conditions: 9 μM compound with 230 μM human IgG 24 h, no column step
Method: as §1
Next, the capacity of alkyl-AI-cARM 10, alkyl-ARM 11, and SO2F-cARM 14 to direct immune activation via polyclonal anti-rhamnose antibodies was evaluated using a modified ADCC reporter assay (Figure 5C). ADCC represents a major mode of antitumor NK cell immunotherapeutic function, common to many FDA-approved monoclonal antibody therapies. […]

## C[C@@H]1O[C@@H](OCc2cn(CCc3cn(C(=O)OCCNC(=O)CCCCCNC(=O)CCCCCNC(=O)CCCCCNC(=O)NCCCC[C@H](NC(=O)N[C@@H](CCC(=O)O)C(=O)O)C(=O)O)cn3)nn2)[C@H](O)[C@H](O)[C@H]1O [compound 10]
[1]
  induction of ADCP: nonfunctional
Hek-PSMA cells
  jurkat (immune) activation: failed to direct immune activation

## C[C@@H]1O[C@@H](OCc2cn(CCCNC(=O)OCCNC(=O)CCCCCNC(=O)CCCCCNC(=O)CCCCCNC(=O)NCCCC[C@H](NC(=O)N[C@@H](CCC(=O)O)C(=O)O)C(=O)O)nn2)[C@H](O)[C@H](O)[C@H]1O [compound 11]
[1]
  induction of ADCP: failure
Hek-PSMA cells
  jurkat (immune) activation: failed to direct immune activation
